Reference: US10785975B2, “Water and feed antimicrobial preservative” (priority 2009, dated 2020)
Like-named read-outs stand apart in the source and are kept apart here.

Assays:
[1] = tested on: Salmonella typhimurium; assay: Study 6: capric acid in acetic or propionic acid against salmonella in poultry feed; type: cell-based; conditions: Capric/Propionic acids, 24 hours after treatment
Method: (§1) Commercial poultry feed amended with Salmonella typhimurium was treated with 1 or 3 kg/MT of the solutions listed below. Twenty four hours after treatment, 10 gr of feed was added to 90 ml Butterfield buffer, mixed and then 100 ul of the solution was plated on Standard Plate agar (triplicate plates). Plates were incubated at 37° C. for 24 hours prior to enumeration.

[2] = tested on: Salmonella typhimurium; assay: Study 5: propionic, acetic and pelargonic acids alone or in combination in water; type: cell-based
Method: Propionic, acetic and pelargonic acids by themselves or in combination as listed were added to sterile deionized water to make at a 0.05%, 0.04%, 0.03%, 0.02% and 0.01% total acid solutions. The pHs of the deionized water solutions were recorded and any problems with solubility noted. 100 ul of a nutrient broth culture of Salmonella typhimurium was added to each dilution tube. After addition, tubes were vortexed and allowed to stand. At 24 hours after addition of the inoculum, 100 ul of the solution was plated on Standard Plate agar (triplicate plates). Plates were incubated at 37° C. for 24 hours prior to enumeration.

[3] = tested on: Salmonella typhimurium; assay: Example 3: buffered organic acid mixtures with pelargonic acid in water; type: cell-based; conditions: Minimum Inhibitory Concentration of Pelargonic when mixed with acetic or propionic acid (buffered to pH 3), by linear regression
Method: Procedure: Propionic and acetic acids were buffered with ammonium hydroxide to a pH of 3 and combined with pelargonic in the ratios above. Acid content of the buffered solutions was determined by weight to weight ratio calculation (weight of acid/total weight of buffered solution) and adjusted to provide an equal acid value for each treatment. […] The pHs of the deionized water solutions were recorded and any problems with solubility noted.
100 ul of a nutrient broth culture of Salmonella typhimurium was added to each dilution tube. After addition, tubes were vortexed and allowed to stand. At 4 and 24 hours after addition of the inoculum, 100 ul of the solution was plated on Standard Plate agar (triplicate plates). Plates were incubated at 37° C. for 24 hours prior to enumeration. The minimum effective dose of each acid was determined by linear regression.

[4] = tested on: Salmonella typhimurium; assay: Study 8: lauric acid in propionic acid against salmonella in poultry feed; type: cell-based; conditions: Lauric/Propionic acids, 24 hours after treatment
Method: Lauric acid (5%, 10%, 20%) diluted with propionic acid was tested to determine its effectiveness against salmonella in feed.
[…] Twenty four hours after treatment, 10 gr of feed was added to 90 ml Butterfield buffer, mixed and then 100 ul of the solution was plated on Standard Plate agar (triplicate plates). Plates were incubated at 37° C. for 24 hours prior to enumeration.

[5] = tested on: Salmonella typhimurium; assay: Example 2: effect of carbon chain length of individual organic acids on antimicrobial activity in water; type: cell-based; parameters: MIC at 4 HR / MIC at 24 FIR: unit not given here; conditions: for killing at […] / killing at 0.05 % / killing at 0.075 % / killing at 0.1 %: Salmonella enterica, TYPHIMURIUM
Method: 100 ul of a nutrient broth culture of Salmonella typhimurium was added to each dilution tube. After addition, tubes were vortexed and allowed to stand. At 4 and 24 hours after addition of the inoculum, 100 ul of the solution was plated on agar (triplicate plates). Plates were incubated at 37° C. for 24 hours prior to enumeration. The minimum effective dose of each acid was be determined by linear regression: […]

[6] = tested on: Salmonella typhimurium; assay: Study 7: myristic acid in propionic acid against salmonella in poultry feed; type: cell-based; conditions: Myristic/Propionic acids, 24 hours after treatment
Method: (§2) Myristic acid (5%, 10% and 20%) diluted in propionic acid was tested to determine its effectiveness against salmonella in feed.
as §1

[7] = Method: Pelargonic acid is a naturally occurring fatty acid found in almost all species of animals and plants. Because it contains nine carbon atoms, it is also called nonanoic acid has the chemical formula CH3(CH2)7COOH. It is found at low levels in many common foods and is readily broken down in the environment. It is an oily colorless fluid that solidifies at lower temperatures.
In this experiment, the effect of free fatty acids was evaluated. […] The pH of the deionized water solutions was recorded and any problems with solubility noted
as §2

Question: With CCC(=O)O [Propionic acid] as the compound, how does the “% Reduction” value ([1]; 1 kg/ton) read?
Answer: Its value is 0%.

Question: What about the cfu/g ([1]; 1 kg/ton) of the same compound?
Answer: The cfu/g was 4633 cfu/g.

Question: What about the “% Reduction” value ([1]; 3 kg/ton) of the same compound?
Answer: The value was 0%.

Question: And the cfu/g ([1]; 3 kg/ton)?
Answer: Its cfu/g is 5633 cfu/g.

Question: What about the “Salmonella 24 hr afterTreatment (cfu/g)” value ([2]; Test Product 0.01 % total acid solution in water) of the same compound?
Answer: The value was 1200 cfu/g.

Question: What about the “Salmonella 24 hr afterTreatment (cfu/g)” value ([2]; Test Product 0.02 % total acid solution in water) of the same compound?
Answer: Its value is 870 cfu/g.

Question: What about the “Salmonella 24 hr afterTreatment (cfu/g)” value ([2]; Test Product 0.03 % total acid solution in water) of the same compound?
Answer: The value was 810 cfu/g.

Question: And the “Salmonella 24 hr afterTreatment (cfu/g)” value ([2]; Test Product 0.04 % total acid solution in water)?
Answer: The value was 910 cfu/g.

Question: What about the “Salmonella 24 hr afterTreatment (cfu/g)” value ([2]; Test Product 0.05 % total acid solution in water) of the same compound?
Answer: The value was 560 cfu/g.

Question: And the “MIC at 4 HR” value ([3]; 4 hr)?
Answer: The value was 0.179.

Question: What about the “MIC at 24 HR” value ([3]; 24 hr) of the same compound?
Answer: The value was 0.064.

Question: And the “% Reduction” value ([4]; 1 kg/MT)?
Answer: Its value is 92.3%.

Question: What about the cfu/g ([4]; 1 kg/MT) of the same compound?
Answer: The cfu/g was 2567 cfu/g.

Question: What about the “% Reduction” value ([4]; 3 kg/MT) of the same compound?
Answer: The value was 100.0%.

Question: And the cfu/g ([4]; 3 kg/MT)?
Answer: The cfu/g was 0 cfu/g.

Question: And the “MIC at 4 HR” value ([5]; Minimum Inhibitory Concentration of Organic Acids against Salmonella, by linear regression, 4 hr)?
Answer: The value was 0166.

Question: And the “MIC at 24 FIR” value ([5]; Minimum Inhibitory Concentration of Organic Acids against Salmonella, by linear regression, 24 hours)?
Answer: The value was 0.066.

Question: And the “Salmonella at time Interval 4 hr cfu/g” value ([5]; Product Conc. 0.025 (% acid solution in water), 4 hr)?
Answer: Its value is 1167 cfu/g.

Question: What about the “Salmonella at time Interval 24 hr cfu/g” value ([5]; Product Conc. 0.025 (% acid solution in water), 24 hr) of the same compound?
Answer: Its value is 170 cfu/g.

Question: And the “Salmonella at time Interval 4 hr cfu/g” value ([5]; Product Conc. 0.05 (% acid solution in water), 4 hr)?
Answer: Its value is 900 cfu/g.

Question: What about the “Salmonella at time Interval 24 hr cfu/g” value ([5]; Product Conc. 0.05 (% acid solution in water), 24 hr) of the same compound?
Answer: The value was 40 cfu/g.

Question: And the “Salmonella at time Interval 4 hr cfu/g” value ([5]; Product Conc. 0.075 (% acid solution in water), 4 hr)?
Answer: The value was 877 cfu/g.

Question: What about the “Salmonella at time Interval 24 hr cfu/g” value ([5]; Product Conc. 0.075 (% acid solution in water), 24 hr) of the same compound?
Answer: Its value is 25 cfu/g.

Question: What about the “Salmonella at time Interval 4 hr cfu/g” value ([5]; Product Conc. 0.1 (% acid solution in water), 4 hr) of the same compound?
Answer: The value was 773 cfu/g.

Question: And the “Salmonella at time Interval 24 hr cfu/g” value ([5]; Product Conc. 0.1 (% acid solution in water), 24 hr)?
Answer: The value was 30 cfu/g.

Question: What about the killing at […] ([5]; Product Conc. 0.025 (% acid solution in water), 4 hr, read-out: Salmonella at time Interval 4 hr % reduction) of the same compound?
Answer: The killing at […] was 27%.

Question: What about the killing at […] ([5]; Product Conc. 0.025 (% acid solution in water), 24 hr, read-out: Salmonella at time Interval 24 hr % reduction) of the same compound?
Answer: Its killing at […] is 90%.

Question: And the killing at 0.05 % ([5]; Product Conc. 0.05 (% acid solution in water), 4 hr, read-out: Salmonella at time Interval 4 hr % reduction)?
Answer: The killing at 0.05 % was 44%.

Question: What about the killing at 0.05 % ([5]; Product Conc. 0.05 (% acid solution in water), 24 hr, read-out: Salmonella at time Interval 24 hr % reduction) of the same compound?
Answer: Its killing at 0.05 % is 98%.

Question: And the killing at 0.075 % ([5]; Product Conc. 0.075 (% acid solution in water), 4 hr, read-out: Salmonella at time Interval 4 hr % reduction)?
Answer: The killing at 0.075 % was 45%.

Question: What about the killing at 0.075 % ([5]; Product Conc. 0.075 (% acid solution in water), 24 hr, read-out: Salmonella at time Interval 24 hr % reduction) of the same compound?
Answer: Its killing at 0.075 % is 99%.

Question: And the killing at 0.1 % ([5]; Product Conc. 0.1 (% acid solution in water), 4 hr, read-out: Salmonella at time Interval 4 hr % reduction)?
Answer: Its killing at 0.1 % is 52%.

Question: And the killing at 0.1 % ([5]; Product Conc. 0.1 (% acid solution in water), 24 hr, read-out: Salmonella at time Interval 24 hr % reduction)?
Answer: The killing at 0.1 % was 98%.

Question: And the “% Reduction” value ([6]; 1 kg/MT)?
Answer: The value was 90.08%.

Question: And the cfu/g ([6]; 1 kg/MT)?
Answer: The cfu/g was 3967 cfu/g.

Question: What about the “% Reduction” value ([6]; 3 kg/MT) of the same compound?
Answer: The value was 99.42%.

Question: What about the cfu/g ([6]; 3 kg/MT) of the same compound?
Answer: The cfu/g was 233 cfu/g.

Question: For CCCCCCCCCCCC(=O)O [lauric, Lauric acid], which solubility in water [7] is on record?
Answer: The solubility in water was “not soluble in water”.
